# Source: patent US10611740B2, “Aryl dihydro-2H-benzo[b][1,4]oxazine sulfonamide and related compounds for use as agonists of RORγ and the treatment of disease” (Lycera Corporation, priority 2015, dated 2020)
# Target: T1, Gal4-RORγ-LBD (Homo sapiens, UniProt P51449)
# T1 construct: expressed in transfected cells; host or cells: HEK-293 cells (pcDNA3.1neo plasmid)
# T1 sequence (P51449 269-508 limits assumed): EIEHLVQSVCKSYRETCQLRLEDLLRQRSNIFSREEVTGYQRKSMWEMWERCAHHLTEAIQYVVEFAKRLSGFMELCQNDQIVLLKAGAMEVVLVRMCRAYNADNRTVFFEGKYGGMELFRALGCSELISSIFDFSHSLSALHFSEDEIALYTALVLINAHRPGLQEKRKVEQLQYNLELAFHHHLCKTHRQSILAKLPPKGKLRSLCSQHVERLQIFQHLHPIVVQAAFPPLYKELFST
# Test: Gal4-RORγ Luciferase Reporter Assay in HEK-293T Cells
# Format: cell-based
# Details: HEK-293 cells, 2 μM ursolic acid
# Experimental: Assay procedures and results are described below.
# In the following protocol, HEK-293 cells were transfected with a construct comprising the Gal4 DNA binding domain fused to the ligand binding domain of RORγ (Gal4-RORγ-LBD) in a pcDNA3.1neo plasmid, and also with a reporter construct comprising pGL4.31 Gal4-luciferase (Promega). Control cells were prepared similarly using empty pcDNA3.1neo and pGL4.31 vectors.
# Trans-IT reagent (Mirus, 60 μL) at room temperature was added drop wise to OptiMEM (Invitrogen, 1.5 ml). This reagent mixture was mixed by inversion then incubated for 5 to 30 minutes at room temperature. It then was added to a solution of both expression vectors (5 μg each), mixed, and incubated at room temperature for about 20 minutes. HEK-293 cells were harvested from incubation flasks by removing the media, treating with TrypLE Express (Invitrogen), and incubating until the cells detached from the bottom of the flask (approximately 2-5 minutes). 10 Million cells were collected by centrifugation and re-suspended in 10 mL of Dulbecco's Modified Eagle Medium, High Glucose (DMEM, Invitrogen) containing 10% Fetal Bovine Serum and 100 IU each of penicillin and streptomycin. The re-suspended cells and the transfection mixture were added to a T75 flask, mixed and incubated overnight at 37° C. and 5% CO2.
# The cells were harvested as described above, counted, and centrifuged to obtain the desired number of cells, then re-suspended in complete growth media at 0.75×10^6 cells/mL. The RORγ antagonist, ursolic acid, was added to the cells at a final concentration of 2 μM. Cells were plated at 20 μL of cell suspension/well (10,000-15,000 cells/well) in white tissue culture treated 384 well plates. Test compounds were dissolved at 10 mM in DMSO then diluted into complete growth medium to 5× the final intended test concentration. These drug stock solutions, 5 μL/well were added to the tissue culture plate. The final DMSO concentration was 0.2%. The plates were briefly centrifuged then incubated overnight at 37° C. and 5% CO2. To conduct the assay, the tissue culture plates were allowed to equilibrate to room temperature and One-Glo luciferase reagent (Promega, 25 μL/well) was added. The plates were briefly centrifuged then incubated at room temperature for 10 minutes. The luciferase intensity was read on an Envision plate reader (Perkin Elmer). […] The luciferase signal in the absence of ursolic acid or test compound is defined at 100. The Max Response is the upper plateau in the signal as determined by line-fit using a 4-parameter logistic model in PRISM (GraphPad).
EC50,SMILES,Gal4-RORγ Assay Max Response
< 500 nM,"O=C(O)C1(C[C@H]2CN(S(=O)(=O)c3cncc(C(F)(F)F)c3)c3cc(-c4cc(F)cc(OC(F)F)c4)ccc3O2)COC1 [Compound 51L, (S)-3-((6-(3-(difluoromethoxy)-5-fluorophenyl)-4-((5-(trifluoro-methyl)pyridin-3-yl)sulfonyl)-3,4-dihydro-2H-benzo[b][1,4]oxazin-2-yl)methyl)oxetane-3-carboxylic acid]",** (The symbol “**” indicates a value in the range of greater than 90 to 150)
500 to 5000 nM,"O=C(O)[C@]1(C[C@H]2CN(S(=O)(=O)c3cccc(C(F)(F)F)c3)c3cc(-c4cc(F)cc(OC(F)F)c4)ccc3O2)C[C@@H](O)[C@@H](O)C1 [Compound 64, (1s,3R,4S)-1-(((S)-6-(3-(difluoromethoxy)-5-fluorophenyl)-4-((3-(trifluoromethyl)phenyl)sulfonyl)-3,4-dihydro-2H-benzo[b][1,4]oxazin-2-yl)methyl)-3,4-dihydroxycyclopentane-1-carboxylic acid]",** (The symbol “**” indicates a value in the range of greater than 90 to 150)
500 to 5000 nM,"O=C(O)[C@@]1(C[C@H]2CN(S(=O)(=O)c3cccc(C(F)(F)F)c3)c3cc(-c4cc(F)cc(OC(F)F)c4)ccc3O2)C[C@@H](O)[C@@H](O)C1 [Compound 65, (1r,3R,4S)-1-(((S)-6-(3-(difluoromethoxy)-5-fluorophenyl)-4-((3-(trifluoromethyl)phenyl)sulfonyl)-3,4-dihydro-2H-benzo[b][1,4]oxazin-2-yl)methyl)-3,4-dihydroxycyclopentane-1-carboxylic acid]",** (The symbol “**” indicates a value in the range of greater than 90 to 150)
< 500 nM,"O=C(O)[C@]1(C[C@H]2CN(S(=O)(=O)c3cccc(C(F)(F)F)c3)c3cc(-c4cc(F)cc(OC(F)F)c4)ccc3O2)C[C@H](O)C1 [Compound 67, (1s,3S)-1-(((S)-6-(3-(difluoromethoxy)-5-fluorophenyl)-4-((3-(trifluoromethyl)phenyl)sulfonyl)-3,4-dihydro-2H-benzo[b][1,4]oxazin-2-yl)methyl)-3-hydroxycyclobutane-1-carboxylic acid]",** (The symbol “**” indicates a value in the range of greater than 90 to 150)
< 500 nM,"O=C(O)[C@]1(C[C@H]2CN(S(=O)(=O)c3cccc(C(F)(F)F)c3)c3cc(-c4cc(F)cc(OC(F)F)c4)ccc3O2)C[C@@H](O)C1 [Compound 68, (1r,3R)-1-(((S)-6-(3-(difluoromethoxy)-5-fluorophenyl)-4-((3-(trifluoromethyl)phenyl)sulfonyl)-3,4-dihydro-2H-benzo[b][1,4]oxazin-2-yl)methyl)-3-hydroxycyclobutane-1-carboxylic acid]",** (The symbol “**” indicates a value in the range of greater than 90 to 150)
500 to 5000 nM,"C[C@]1(C(=O)O)C[C@H](C[C@H]2CN(S(=O)(=O)c3cccc(C(F)(F)F)c3)c3cc(-c4cc(F)cc(OC(F)F)c4)ccc3O2)C1 [Compound 69, (1S,3r)-3-(((S)-6-(3-(difluoromethoxy)-5-fluorophenyl)-4-((3-(trifluoromethyl)phenyl)sulfonyl)-3,4-dihydro-2H-benzo[b][1,4]oxazin-2-yl)methyl)-1-methylcyclobutane-1-carboxylic acid]",** (The symbol “**” indicates a value in the range of greater than 90 to 150)
< 500 nM,"COc1cc(Cl)cc(-c2ccc3c(c2)N(S(=O)(=O)c2cccc(C(F)(F)F)c2)C[C@H](CC2(C(=O)O)CCOCC2)O3)c1 [Compound 78L, (S)-4-((6-(3-chloro-5-methoxy-phenyl)-4-((3-(trifluoromethyl)-phenyl)sulfonyl)-3,4-dihydro-2H-benzo[b][1,4]oxazin-2-yl)methyl)tetrahydro-2H-pyran-4-carboxylic acid]",** (The symbol “**” indicates a value in the range of greater than 90 to 150)

# Continued, compound first:
SMILES,EC50,Gal4-RORγ Assay Max Response
"O=C(O)C1(C[C@H]2CN(S(=O)(=O)c3cccc(C(F)F)c3)c3cc(-c4cc(F)cc(OC(F)F)c4)ccc3O2)COC1 [Compound 51J, (S)-3-((6-(3-(difluoromethoxy)-5-fluorophenyl)-4-((3-(difluoro-methyl)phenyl)sulfonyl)-3,4-dihydro-2H-benzo[b][1,4]oxazin-2-yl)methyl)oxetane-3-carboxylic acid]",< 500 nM,** (The symbol “**” indicates a value in the range of greater than 90 to 150)
"O=C(O)C1(C[C@H]2CN(S(=O)(=O)c3cncc(C(F)(F)F)c3)c3cc(-c4cc(F)ccc4F)ccc3O2)COC1 [Compound 51K, (S)-3-((6-(2,5-difluorophenyl)-4-((5-(trifluoromethyl)pyridin-3-yl)sulfonyl)-3,4-dihydro-2H-benzo[b][1,4]oxazin-2-yl)methyl)oxetane-3-carboxylic acid]",500 to 5000 nM,*** (The symbol “***” indicates a value in the range of greater than 150 to 200)
"C[C@]1(C(=O)O)C[C@H](C[C@H]2CN(S(=O)(=O)c3cccc(C(F)(F)F)c3)c3cc(-c4cc(F)cc(F)c4Cl)ccc3O2)C1 [Compound 60F, (1S,3r)-3-(((S)-6-(2-chloro-3,5-difluorophenyl)-4-((3-(trifluoro-methyl)phenyl)sulfonyl)-3,4-dihydro-2H-benzo[b][1,4]oxazin-2-yl)methyl)-1-methylcyclo-butane-1-carboxylic acid]",< 500 nM,** (The symbol “**” indicates a value in the range of greater than 90 to 150)
"CC1(C(=O)O)CC(C[C@H]2CN(S(=O)(=O)c3cccc(C(F)(F)F)c3)c3cc(-c4cc(F)cc(F)c4Cl)ccc3O2)C1 (stereo partly drawn) [Compound 60G, (1R,3s)-3-(((S)-6-(2-chloro-3,5-difluorophenyl)-4-((3-(trifluoro-methyl)phenyl)sulfonyl)-3,4-dihydro-2H-benzo[b][1,4]oxazin-2-yl)methyl)-1-methylcyclo-butane-1-carboxylic acid]",< 500 nM,*** (The symbol “***” indicates a value in the range of greater than 150 to 200)
"CC(=O)N[C@H]1C[C@@H]([C@H]2CN(S(=O)(=O)c3cccc(C(F)(F)F)c3)c3cc(-c4cc(F)ccc4F)ccc3O2)C1 [Compound 60L, N-((1R,3s)-3-((S)-6-(2,5-difluorophenyl)-4-((3-(trifluoro-methyl)phenyl)sulfonyl)-3,4-dihydro-2H-benzo[b][1,4]-oxazin-2-yl)cyclobutyl)-acetamide]",< 500 nM,** (The symbol “**” indicates a value in the range of greater than 90 to 150)
"CC(=O)N[C@H]1C[C@H]([C@H]2CN(S(=O)(=O)c3cccc(C(F)(F)F)c3)c3cc(-c4cc(F)ccc4F)ccc3O2)C1 [Compound 60M, N-((1S,3r)-3-((S)-6-(2,5-difluorophenyl)-4-((3-(trifluoro-methyl)phenyl)sulfonyl)-3,4-dihydro-2H-benzo[b][1,4]-oxazin-2-yl)cyclobutyl)-acetamide]",< 500 nM,** (The symbol “**” indicates a value in the range of greater than 90 to 150)
"C[C@]1(C(=O)O)C[C@@H](C[C@H]2CN(S(=O)(=O)c3cccc(C(F)(F)F)c3)c3cc(-c4cc(F)cc(OC(F)F)c4)ccc3O2)C1 [Compound 70, (1R,3s)-3-(((S)-6-(3-(difluoromethoxy)-5-fluorophenyl)-4-((3-(trifluoromethyl)phenyl)sulfonyl)-3,4-dihydro-2H-benzo[b][1,4]oxazin-2-yl)methyl)-1-methylcyclobutane-1-carboxylic acid]",500 to 5000 nM,*** (The symbol “***” indicates a value in the range of greater than 150 to 200)
"O=C(O)C1(C[C@H]2CN(S(=O)(=O)c3cccc(C(F)(F)F)c3)c3cc(-c4cccc(OC(F)(F)F)c4)ccc3O2)CCOCC1 [Compound 78K, (S)-4-((6-(3-(trifluoromethoxy)-phenyl)-4-((3-(trifluoromethyl)-phenyl)sulfonyl)-3,4-dihydro-2H-benzo[b][1.4]oxazin-2-yl)methyl)tetrahydro-2H-pyran-4-carboxylic acid]",< 500 nM,** (The symbol “**” indicates a value in the range of greater than 90 to 150)
